Assay results taken from the NIST ThermoML archive (doi:10.1016/j.jct.2018.09.009).

Key:
[1] = molar heat capacity at constant volume; xn = mol fraction of the nth substance listed; conditions: Liquid, Vacuum adiabatic calorimetry
[2] = xn = mol fraction of the nth substance listed; conditions: Liquid, isochoric method

C=C(F)C(F)(F)F [2,3,3,3-tetrafluoro-1-propene] + CCC
Conditions | mass density [kg/m3] | molar heat capacity at constant volume [J/K/mol]
[1], 255.48 K, 2690 kPa, x1 = 0.607 | – | 81.79
[1], 257.09 K, 2443 kPa, x1 = 0.825 | – | 89.48
[1], 257.86 K, 4335 kPa, x1 = 0.607 | – | 82.48
[1], 259.43 K, 4057 kPa, x1 = 0.825 | – | 89.48
[1], 260.23 K, 5972 kPa, x1 = 0.607 | – | 82.92
[1], 261.79 K, 5682 kPa, x1 = 0.825 | – | 90.4
[1], 262.6 K, 7603 kPa, x1 = 0.607 | – | 82.74
[1], 264.12 K, 7292 kPa, x1 = 0.825 | – | 90.81
[1], 264.95 K, 9223 kPa, x1 = 0.607 | – | 83.87
[1], 266.43 K, 8891 kPa, x1 = 0.825 | – | 90.2
[1], 267.27 K, 10823 kPa, x1 = 0.607 | – | 83.61
[1], 268.75 K, 10488 kPa, x1 = 0.825 | – | 91.52
[1], 269.57 K, 12416 kPa, x1 = 0.607 | – | 84.82
[1], 271.06 K, 12087 kPa, x1 = 0.825 | – | 91.21
[1], 275.52 K, 2097 kPa, x1 = 0.825 | – | 93.05
[1], 276.02 K, 1993 kPa, x1 = 0.607 | – | 87.59
[1], 277.84 K, 3440 kPa, x1 = 0.825 | – | 93.86
[1], 278.37 K, 3320 kPa, x1 = 0.607 | – | 87.07
[1], 280.2 K, 4817 kPa, x1 = 0.825 | – | 94.67
[1], 280.75 K, 4661 kPa, x1 = 0.607 | – | 88.46
[1], 282.57 K, 6197 kPa, x1 = 0.825 | – | 95.49
[1], 283.13 K, 6012 kPa, x1 = 0.607 | – | 88.11
[1], 284.92 K, 7561 kPa, x1 = 0.825 | – | 95.18
[1], 285.51 K, 7357 kPa, x1 = 0.607 | – | 88.54
[1], 287.24 K, 8908 kPa, x1 = 0.825 | – | 95.69
[1], 287.89 K, 8694 kPa, x1 = 0.607 | – | 88.89
[1], 289.57 K, 10249 kPa, x1 = 0.825 | – | 96.1
[1], 290.27 K, 10038 kPa, x1 = 0.607 | – | 89.15
[1], 291.9 K, 11593 kPa, x1 = 0.825 | – | 97.32
[1], 292.66 K, 11390 kPa, x1 = 0.607 | – | 89.15
[1], 295.03 K, 12722 kPa, x1 = 0.607 | – | 89.41
[1], 295.93 K, 1917 kPa, x1 = 0.825 | – | 96.81
[1], 298.32 K, 3042 kPa, x1 = 0.825 | – | 97.73
[1], 300.77 K, 4193 kPa, x1 = 0.825 | – | 97.63
[1], 302.78 K, 1793 kPa, x1 = 0.607 | – | 91.49
[1], 303.23 K, 5349 kPa, x1 = 0.825 | – | 97.53
[1], 305.28 K, 2835 kPa, x1 = 0.607 | – | 91.83
[1], 305.69 K, 6504 kPa, x1 = 0.825 | – | 99.26
[1], 307.82 K, 3898 kPa, x1 = 0.607 | – | 91.4
[1], 308.14 K, 7659 kPa, x1 = 0.825 | – | 98.75
[1], 310.37 K, 4961 kPa, x1 = 0.607 | – | 92.35
[1], 310.6 K, 8808 kPa, x1 = 0.825 | – | 100.68
[1], 312.91 K, 6022 kPa, x1 = 0.607 | – | 93.48
[1], 313.06 K, 9957 kPa, x1 = 0.825 | – | 100.58
[1], 314.95 K, 2140 kPa, x1 = 0.285 | – | 84.58
[1], 315.46 K, 7086 kPa, x1 = 0.607 | – | 93.82
[1], 315.53 K, 11107 kPa, x1 = 0.825 | – | 102.31
[1], 317.06 K, 2127 kPa, x1 = 0.521 | – | 93.58
[1], 317.4 K, 3029 kPa, x1 = 0.285 | – | 85.48
[1], 318.01 K, 8150 kPa, x1 = 0.607 | – | 94.52
[1], 319.49 K, 2066 kPa, x1 = 0.825 | – | 102.21
[1], 319.6 K, 2994 kPa, x1 = 0.521 | – | 93.99
[1], 319.85 K, 3919 kPa, x1 = 0.285 | – | 86.63
[1], 320.54 K, 9207 kPa, x1 = 0.607 | – | 95.55
[1], 322.06 K, 2960 kPa, x1 = 0.825 | – | 103.02
[1], 322.15 K, 3867 kPa, x1 = 0.521 | – | 94.07
[1], 322.29 K, 4807 kPa, x1 = 0.285 | – | 87.15
[1], 323.08 K, 10263 kPa, x1 = 0.607 | – | 96.25
[1], 324.62 K, 3854 kPa, x1 = 0.825 | – | 104.35
[1], 324.7 K, 4739 kPa, x1 = 0.521 | – | 94.55
[1], 324.78 K, 5712 kPa, x1 = 0.285 | – | 87.47
[1], 325.63 K, 11326 kPa, x1 = 0.607 | – | 96.68
[1], 327.17 K, 4744 kPa, x1 = 0.825 | – | 105.16
[1], 327.23 K, 5608 kPa, x1 = 0.521 | – | 95.28
[1], 327.29 K, 6626 kPa, x1 = 0.285 | – | 87.72
[1], 329.73 K, 5637 kPa, x1 = 0.825 | – | 105.87
[1], 329.76 K, 6474 kPa, x1 = 0.521 | – | 95.44
[1], 329.79 K, 7534 kPa, x1 = 0.285 | – | 87.53
[1], 332.28 K, 8436 kPa, x1 = 0.285 | – | 87.98
[1], 332.3 K, 6534 kPa, x1 = 0.825 | – | 105.97
[1], 332.3 K, 7345 kPa, x1 = 0.521 | – | 94.79
[1], 334.76 K, 9337 kPa, x1 = 0.285 | – | 88.36
[1], 334.85 K, 7427 kPa, x1 = 0.825 | – | 106.28
[1], 334.85 K, 8221 kPa, x1 = 0.521 | – | 95.92
[1], 337.25 K, 10238 kPa, x1 = 0.285 | – | 88.81
[1], 337.4 K, 8319 kPa, x1 = 0.825 | – | 106.89
[1], 337.4 K, 9098 kPa, x1 = 0.521 | – | 96.32
[1], 339.71 K, 11132 kPa, x1 = 0.285 | – | 88.87
[1], 339.93 K, 9963 kPa, x1 = 0.521 | – | 96.24
[1], 339.94 K, 9209 kPa, x1 = 0.825 | – | 106.69
[1], 342.17 K, 12023 kPa, x1 = 0.285 | – | 89.07
[1], 342.44 K, 10822 kPa, x1 = 0.521 | – | 96.32
[1], 342.47 K, 10092 kPa, x1 = 0.825 | – | 106.89
[1], 344.64 K, 12917 kPa, x1 = 0.285 | – | 89.19
[1], 344.94 K, 11680 kPa, x1 = 0.521 | – | 96.56
[1], 345.02 K, 10985 kPa, x1 = 0.825 | – | 107.2
[1], 347.09 K, 13803 kPa, x1 = 0.285 | – | 89.32
[1], 347.44 K, 12532 kPa, x1 = 0.521 | – | 96.89
[1], 347.55 K, 11870 kPa, x1 = 0.825 | – | 106.38
[2], 254.28 K, 1867 kPa, x1 = 0.607 | 969.9 | –
[2], 255.92 K, 1645 kPa, x1 = 0.825 | 1109.8 | –
[2], 256.67 K, 3513 kPa, x1 = 0.607 | 969.4 | –
[2], 258.25 K, 3241 kPa, x1 = 0.825 | 1109.2 | –
[2], 259.05 K, 5156 kPa, x1 = 0.607 | 968.9 | –
[2], 260.61 K, 4872 kPa, x1 = 0.825 | 1108.7 | –
[2], 261.41 K, 6787 kPa, x1 = 0.607 | 968.5 | –
[2], 262.96 K, 6492 kPa, x1 = 0.825 | 1108.1 | –
[2], 263.78 K, 8419 kPa, x1 = 0.607 | 968 | –
[2], 265.27 K, 8092 kPa, x1 = 0.825 | 1107.6 | –
[2], 266.11 K, 10027 kPa, x1 = 0.607 | 967.5 | –
[2], 267.59 K, 9690 kPa, x1 = 0.825 | 1107 | –
[2], 268.42 K, 11618 kPa, x1 = 0.607 | 967 | –
[2], 269.9 K, 11286 kPa, x1 = 0.825 | 1106.5 | –
[2], 270.72 K, 13214 kPa, x1 = 0.607 | 966.5 | –
[2], 272.22 K, 12888 kPa, x1 = 0.825 | 1105.9 | –
[2], 290.26 K, 1730 kPa, x1 = 0.521 | 821.2 | –
[2], 292.5 K, 2803 kPa, x1 = 0.521 | 820.9 | –
[2], 294.78 K, 3896 kPa, x1 = 0.521 | 820.6 | –
[2], 297.13 K, 5024 kPa, x1 = 0.521 | 820.3 | –
[2], 299.47 K, 6148 kPa, x1 = 0.521 | 820 | –
[2], 301.86 K, 7296 kPa, x1 = 0.521 | 819.7 | –
[2], 304.23 K, 8438 kPa, x1 = 0.521 | 819.4 | –
[2], 306.62 K, 9582 kPa, x1 = 0.521 | 819.1 | –
[2], 309.04 K, 10744 kPa, x1 = 0.521 | 818.8 | –
[2], 311.5 K, 11920 kPa, x1 = 0.521 | 818.5 | –
[2], 313.73 K, 1699 kPa, x1 = 0.285 | 626 | –
[2], 313.86 K, 13057 kPa, x1 = 0.521 | 818.2 | –
[2], 316.16 K, 2581 kPa, x1 = 0.285 | 625.9 | –
[2], 318.63 K, 3477 kPa, x1 = 0.285 | 625.7 | –
[2], 321.06 K, 4361 kPa, x1 = 0.285 | 625.5 | –
[2], 323.51 K, 5252 kPa, x1 = 0.285 | 625.3 | –
[2], 326.04 K, 6172 kPa, x1 = 0.285 | 625.1 | –
[2], 328.54 K, 7079 kPa, x1 = 0.285 | 624.9 | –
[2], 331.04 K, 7988 kPa, x1 = 0.285 | 624.7 | –
[2], 333.51 K, 8883 kPa, x1 = 0.285 | 624.5 | –
[2], 336.01 K, 9790 kPa, x1 = 0.285 | 624.3 | –
[2], 338.48 K, 10686 kPa, x1 = 0.285 | 624.1 | –
[2], 340.94 K, 11578 kPa, x1 = 0.285 | 624 | –
[2], 343.4 K, 12468 kPa, x1 = 0.285 | 623.8 | –
[2], 345.88 K, 13366 kPa, x1 = 0.285 | 623.6 | –
[2], 348.3 K, 14239 kPa, x1 = 0.285 | 623.4 | –
